The values below are quoted from earlier work in patent US7935500B2, “Identifying calcineurin activators for treatment of schizophrenia” (Massachusetts Institute of Technology, priority 2002, dated 2011).

The subject of data set [1] is IP3 receptors. The settings on record: literature studies [29], [30].
Data set [2] concerns IP3 receptors. As to conditions: literature studies [29], [30]. This is another data set of the same source.
The test system of data set [3] is ryanodine receptor. As to conditions: literature study [28].
The test system of data set [4] is ryanodine receptor. The settings on record: literature study [28]. The source holds these as a separate data set.

Take `CCN(CC)CCCC(C)Nc1ccnc2cc(Cl)ccc12` (stereo not shown) [chloroquine]: the “effect on binding of [3H]-IP3 to membranes” value in the data set on IP3 receptors [1] is “decrease binding of [3H]-IP3 to membranes”. Moreover, in the data set with IP3 receptors [2], the “effect on calcium influx” value is listed as “decrease calcium influx”.
On to `Cc1ccc(C(=O)Nc2ccc(S(=O)(=O)O)c3cc(S(=O)(=O)O)cc(S(=O)(=O)O)c23)cc1NC(=O)c1cccc(NC(=O)Nc2cccc(C(=O)Nc3cc(C(=O)Nc4ccc(S(=O)(=O)O)c5cc(S(=O)(=O)O)cc(S(=O)(=O)O)c45)ccc3C)c2)c1` [suramin], for which the “effect on binding of [3H]-ryanodine to membranes” value with ryanodine receptor [3] was “increase binding of [3H]-ryanodine to membranes”. Moreover, the “effect on probability of the channel being open (calcium influx)” value with ryanodine receptor [4] was “increase the probability of the channel being open”.
